Assay results reported in patent US10981911B2, “Imidazopyrrolopyridine as inhibitors of the JAK family of kinases” (Janssen Pharmaceutica NV, priority 2016, dated 2021).

What was measured:
Type in all cases: biochemical
[1] = biological target: JAK3-JH1JH2 (Homo sapiens (Human), UniProt P52333); experiment: Enzymatic inhibition assay (RapidFire HTMS), JAK3; settings: 150 μM ATP, 40 μM substrate
Method in brief: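 JAK3 JH1JH2 reaction incubated 45 min at 25 °C, then quenched with 0.5% TFA containing 0.15 μM internal standard peptide. Phosphopeptide product measured by RapidFire C4 SPE–ESI MS (positive mode); inhibition from product decrease versus uninhibited enzyme, 11-point 1:3 or 1:4 dilutions in duplicate.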

[2] = biological target: Tyk2-JH1JH2 (Homo sapiens (Human), UniProt P29597, C1142A/C936A); experiment: Enzymatic inhibition assay (RapidFire HTMS), Tyk2; settings: 50 μM ATP, 200 μM substrate
Method in brief: (§1)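 Quenched with 0.5% TFA plus internal-standard peptide; phosphorylated product quantified by RapidFire C4 SPE–ESI-MS, 11-point 1:3 or 1:4 dilutions in duplicate.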

[3] = biological target: JAK2-JH1JH2 (Homo sapiens (Human), UniProt O60674); experiment: Enzymatic inhibition assay (RapidFire HTMS), JAK2; settings: 30 μM ATP, 40 μM substrate
Method in brief: as §1

[4] = biological target: JAK1-JH1JH2 (Homo sapiens (Human), UniProt P23458); experiment: Enzymatic inhibition assay (RapidFire HTMS), JAK1; settings: 12.5 μM ATP, 200 μM substrate; read-out: JAK1-JH2JH1 IC50
Method in brief: as §1

Chain of Tyk2-JH1JH2 (P29597 580-1182 C936A/C1142A): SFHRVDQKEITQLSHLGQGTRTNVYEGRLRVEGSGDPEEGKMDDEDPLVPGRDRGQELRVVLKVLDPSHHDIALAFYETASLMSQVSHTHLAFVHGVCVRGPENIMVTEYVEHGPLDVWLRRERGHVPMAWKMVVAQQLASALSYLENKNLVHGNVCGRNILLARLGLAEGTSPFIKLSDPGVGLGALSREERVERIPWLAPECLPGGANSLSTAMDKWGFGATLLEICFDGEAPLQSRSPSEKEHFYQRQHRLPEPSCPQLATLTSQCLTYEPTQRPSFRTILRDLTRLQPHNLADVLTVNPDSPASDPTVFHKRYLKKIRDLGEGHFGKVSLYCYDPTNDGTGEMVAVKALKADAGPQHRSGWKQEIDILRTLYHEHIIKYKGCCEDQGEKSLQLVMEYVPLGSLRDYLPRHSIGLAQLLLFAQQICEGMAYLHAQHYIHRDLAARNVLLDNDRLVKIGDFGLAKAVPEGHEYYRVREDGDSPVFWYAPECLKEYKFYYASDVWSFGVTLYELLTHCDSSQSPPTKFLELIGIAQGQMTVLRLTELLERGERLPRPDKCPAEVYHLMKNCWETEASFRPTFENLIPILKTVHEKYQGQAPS
Chain of JAK1-JH1JH2 (P23458 574-1154): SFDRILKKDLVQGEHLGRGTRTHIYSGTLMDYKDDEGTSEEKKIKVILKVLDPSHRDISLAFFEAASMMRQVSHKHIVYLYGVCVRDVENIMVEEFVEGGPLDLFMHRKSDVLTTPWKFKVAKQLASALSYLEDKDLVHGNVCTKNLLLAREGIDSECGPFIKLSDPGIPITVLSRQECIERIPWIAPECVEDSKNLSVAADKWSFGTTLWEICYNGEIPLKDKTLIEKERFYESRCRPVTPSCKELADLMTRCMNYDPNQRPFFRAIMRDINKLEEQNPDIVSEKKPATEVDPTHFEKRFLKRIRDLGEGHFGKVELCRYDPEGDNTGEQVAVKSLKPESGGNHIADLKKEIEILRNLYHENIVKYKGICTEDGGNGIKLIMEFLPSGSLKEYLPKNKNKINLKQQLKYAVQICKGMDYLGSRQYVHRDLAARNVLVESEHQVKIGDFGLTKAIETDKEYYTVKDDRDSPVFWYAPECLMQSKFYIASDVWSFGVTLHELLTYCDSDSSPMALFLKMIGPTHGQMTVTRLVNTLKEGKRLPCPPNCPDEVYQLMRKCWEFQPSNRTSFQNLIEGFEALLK
Chain of JAK2-JH1JH2 (O60674 532-1132): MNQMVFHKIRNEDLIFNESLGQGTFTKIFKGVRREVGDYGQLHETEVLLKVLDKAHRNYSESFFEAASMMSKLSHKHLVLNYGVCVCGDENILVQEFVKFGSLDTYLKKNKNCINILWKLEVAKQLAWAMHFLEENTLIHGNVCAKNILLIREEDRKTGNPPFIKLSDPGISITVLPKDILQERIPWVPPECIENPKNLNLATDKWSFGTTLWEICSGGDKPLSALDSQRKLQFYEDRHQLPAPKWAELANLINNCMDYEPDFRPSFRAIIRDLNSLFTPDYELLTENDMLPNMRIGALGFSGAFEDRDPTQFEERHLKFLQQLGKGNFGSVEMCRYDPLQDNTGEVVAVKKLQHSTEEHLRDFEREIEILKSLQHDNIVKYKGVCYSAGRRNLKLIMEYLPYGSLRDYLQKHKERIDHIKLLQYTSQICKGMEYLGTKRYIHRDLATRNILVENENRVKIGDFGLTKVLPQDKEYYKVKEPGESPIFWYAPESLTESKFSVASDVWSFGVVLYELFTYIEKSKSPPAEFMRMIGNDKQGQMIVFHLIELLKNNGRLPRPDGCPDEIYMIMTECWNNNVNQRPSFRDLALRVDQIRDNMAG
Chain of JAK3-JH1JH2 (P52333 512-1124): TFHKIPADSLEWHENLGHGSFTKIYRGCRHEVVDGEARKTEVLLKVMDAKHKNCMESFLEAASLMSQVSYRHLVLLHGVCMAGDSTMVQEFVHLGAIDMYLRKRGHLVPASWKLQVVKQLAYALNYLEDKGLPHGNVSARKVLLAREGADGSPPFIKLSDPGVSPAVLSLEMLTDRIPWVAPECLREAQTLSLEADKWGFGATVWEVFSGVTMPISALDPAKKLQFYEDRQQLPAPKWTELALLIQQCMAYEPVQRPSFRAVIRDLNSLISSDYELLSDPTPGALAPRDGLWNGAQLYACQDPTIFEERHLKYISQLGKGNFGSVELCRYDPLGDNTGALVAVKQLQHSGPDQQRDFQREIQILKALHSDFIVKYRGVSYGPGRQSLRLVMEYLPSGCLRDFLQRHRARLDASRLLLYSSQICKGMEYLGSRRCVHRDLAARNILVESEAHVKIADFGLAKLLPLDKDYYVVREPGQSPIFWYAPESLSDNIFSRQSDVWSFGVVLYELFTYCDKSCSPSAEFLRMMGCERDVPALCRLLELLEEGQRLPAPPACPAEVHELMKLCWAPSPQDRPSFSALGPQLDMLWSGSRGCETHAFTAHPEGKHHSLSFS

| SMILES | IC50 [1] | IC50 [2] | IC50 [3] | IC50 [4] |
| --- | --- | --- | --- | --- |
| N#CC[C@H]1CC[C@H](n2c(CC(=O)N3CCC[C@@H]3CO)nc3cnc4[nH]ccc4c32)CC1 [Ex. 149, 2-((1r,4r)-4-(2-(2-((R)-2-(Hydroxymethyl)pyrrolidin-1-yl)-2-oxoethyl)imidazo[4,5-d]pyrrolo[2,3-b]pyridin-1(6H)-yl)cyclohexyl)acetonitrile] | 926 nM | 13.9 nM | 54.4 nM | 1.1 nM |
| N#CC[C@H]1CC[C@H](n2c(CNC(=N)C34CC5CC(CC(C5)C3)C4)nc3cnc4[nH]ccc4c32)CC1 [Ex. 156, (3R,5R,7R)—N-((1-((1r,4r)-4-(Cyanomethyl)cyclohexyl)-1,6-dihydroimidazo[4,5-d]pyrrolo[2,3-b]pyridin-2-yl)methyl)adamantane-1-carboximidamide] | 1320 nM | 2.9 nM | 33.6 nM | 1.3 nM |
| N#CCCC(=O)NCc1nc2cnc3[nH]ccc3c2n1[C@H]1CC[C@H](CC#N)CC1 [Ex. 157, 3-Cyano-N-((1-((1r,4r)-4-(cyanomethyl)cyclohexyl)-1,6-dihydroimidazo[4,5-d]pyrrolo[2,3-b]pyridin-2-yl)methyl)propanamide] | 1110 nM | 39.5 nM | 74.9 nM | 1.4 nM |
| N#CC[C@H]1CC[C@H](n2c(C3CNC3)nc3cnc4[nH]ccc4c32)CC1 [Ex. 159, 2-((1r,4r)-4-(2-(Azetidin-3-yl)imidazo[4,5-d]pyrrolo[2,3-b]pyridin-1(6H)-yl)cyclohexyl)acetonitrile] | 1230 nM | 19 nM | 57 nM | 1.6 nM |
| N#CCC(=O)N1CC(c2nc3cnc4[nH]ccc4c3n2[C@H]2CC[C@H](CC#N)CC2)C1 [Ex. 160, 3-(3-(1-((1r,4r)-4-(Cyanomethyl)cyclohexyl)-1,6-dihydroimidazo[4,5-d]pyrrolo[2,3-b]pyridin-2-yl)azetidin-1-yl)-3-oxopropanenitrile] | 1080 nM | 52.4 nM | 87.1 nM | 1.5 nM |
| C[S@](=O)(=NCc1nc2cnc3[nH]ccc3c2n1[C@H]1CC[C@H](CC#N)CC1)c1ccccc1 [Ex. 162, 2-((1r,4r)-4-(2-((((R)-Methyl(oxo)(phenyl)-λ^6-sulfanylidene)amino)methyl)imidazo[4,5-d]pyrrolo[2,3-b]pyridin-1(6H)-yl)cyclohexyl)acetonitrile] | 2270 nM | 81.7 nM | 113 nM | 1.6 nM |
| CC(=O)N1CCC(c2nc3cnc4[nH]ccc4c3n2[C@H]2CC[C@H](CC#N)CC2)CC1 [Ex. 164, 2-((1r,4r)-4-(2-(1-Acetylpiperidin-4-yl)imidazo[4,5-d]pyrrolo[2,3-b]pyridin-1(6H)-yl)cyclohexyl)acetonitrile] | 2150 nM | 174 nM | 125 nM | 1.6 nM |
| N#CC[C@H]1CC[C@H](n2c(Cn3c(C4CC4)noc3=O)nc3cnc4[nH]ccc4c32)CC1 [Ex. 165, 2-((1r,4r)-4-(2-((3-Cyclopropyl-5-oxo-1,2,4-oxadiazol-4(5H)-yl)methyl)imidazo[4,5-d]pyrrolo[2,3-b]pyridin-1(6H)-yl)cyclohexyl)acetonitrile] | 2700 nM | 30.5 nM | 122 nM | 1.7 nM |
| CC(C)(O)CN1CCC(c2nc3cnc4[nH]ccc4c3n2[C@H]2CC[C@H](CC#N)CC2)CC1 [Ex. 168, 2-((1r,4r)-4-(2-(1-(2-Hydroxy-2-methylpropyl)piperidin-4-yl)imidazo[4,5-d]pyrrolo[2,3-b]pyridin-1(6H)-yl)cyclohexyl)acetonitrile] | 1570 nM | 30.7 nM | 34.2 nM | 2 nM |
| C#Cc1ccc(C(=O)c2ccc(-c3nc4cnc5[nH]ccc5c4n3[C@H]3CC[C@H](CC#N)CC3)cc2)cc1 [Ex. 169, 2-((1r,4r)-4-(2-(4-(4-Ethynylbenzoyl)phenyl)imidazo[4,5-d]pyrrolo[2,3-b]pyridin-1(6H)-yl)cyclohexyl)acetonitrile] | 5640 nM | 104 nM | 30.7 nM | 2 nM |
| C#Cc1ccc(C(=O)c2ccc(CCc3nc4cnc5[nH]ccc5c4n3[C@H]3CC[C@H](CC#N)CC3)cc2)cc1 [Ex. 170, 2-((1r,4r)-4-(2-(4-(4-Ethynylbenzoyl)phenethyl)imidazo[4,5-d]pyrrolo[2,3-b]pyridin-1(6H)-yl)cyclohexyl)acetonitrile] | > 12500 nM | 26.4 nM | 80.9 nM | 1.5 nM |
| CC(C)NC(=O)c1nc2cnc3[nH]ccc3c2n1[C@H]1CC[C@H](CC#N)CC1 [Ex. 172, 1-((1r,4r)-4-(Cyanomethyl)cyclohexyl)-N-isopropyl-1,6-dihydroimidazo[4,5-d]pyrrolo[2,3-b]pyridine-2-carboxamide] | 3060 nM | 53.5 nM | 75.2 nM | 2.1 nM |

Stronger by IC50 [1], values ahead:

| IC50 [1] | IC50 [2] | IC50 [3] | IC50 [4] | SMILES |
| --- | --- | --- | --- | --- |
| 110 nM | 34 nM | 10 nM | 1.2 nM | CC(C)/C(N)=N/OCc1nc2cnc3[nH]ccc3c2n1[C@H]1CC[C@H](CC#N)CC1 [Ex. 150, (Z*)—N-((1-((1r,4r)-4-(Cyanomethyl)cyclohexyl)-1,6-dihydroimidazo[4,5-d]pyrrolo[2,3-b]pyridin-2-yl)methoxy)isobutyrimidamide] |
| 103 nM | 37.1 nM | 10.6 nM | 1.4 nM | N#CC[C@H]1CC[C@H](n2c(CO/N=C(\N)C3CC3)nc3cnc4[nH]ccc4c32)CC1 [Ex. 151, (Z*)—N-((1-((1r,4r)-4-(Cyanomethyl)cyclohexyl)-1,6-dihydroimidazo[4,5-d]pyrrolo[2,3-b]pyridin-2-yl)methoxy)cyclopropanecarboximidamide] |
| 803 nM | 53.5 nM | 21.2 nM | 2.8 nM | N#CC[C@H]1CC[C@H](n2c(CO/N=C(\N)C34CC5CC(CC(C5)C3)C4)nc3cnc4[nH]ccc4c32)CC1 [Ex. 152, (3R,5R,7R,E*)-N′-((1-((1r,4r)-4-(Cyanomethyl)cyclohexyl)-1,6-dihydroimidazo[4,5-d]pyrrolo[2,3-b]pyridin-2-yl)methoxy)adamantane-1-carboximidamide] |
| 368 nM | 20.1 nM | 48.5 nM | 1.3 nM | N#CC[C@H]1CC[C@H](n2c(CNC(=O)NCC3CCCCC3)nc3cnc4[nH]ccc4c32)CC1 [Ex. 155, 1-((1-((1r,4r)-4-(Cyanomethyl)cyclohexyl)-1,6-dihydroimidazo[4,5-d]pyrrolo[2,3-b]pyridin-2-yl)methyl)-3-(cyclohexylmethyl)urea] |
| 630 nM | 59.5 nM | 77.9 nM | 1.4 nM | CC(C)(C)OC(=O)NCc1nc2cnc3[nH]ccc3c2n1[C@H]1CC[C@H](CC#N)CC1 [Ex. 158, tert-Butyl ((1-((1r,4r)-4-(Cyanomethyl)cyclohexyl)-1,6-dihydroimidazo[4,5-d]pyrrolo[2,3-b]pyridin-2-yl)methyl)carbamate] |
| 260 nM | 20 nM | 20 nM | 1.6 nM | COCCNC(=O)OCc1nc2cnc3[nH]ccc3c2n1[C@H]1CC[C@H](CC#N)CC1 [Ex. 161, (1-((1r,4r)-4-(Cyanomethyl)cyclohexyl)-1,6-dihydroimidazo[4,5-d]pyrrolo[2,3-b]pyridin-2-yl)methyl (2-methoxyethyl)carbamate] |
| 864 nM | 60.8 nM | 21.2 nM | 3.2 nM | C[S@@](=O)(=NCc1nc2cnc3[nH]ccc3c2n1[C@H]1CC[C@H](CC#N)CC1)c1ccccc1 [Ex. 163, 2-((1r,4r)-4-(2-((((S)-methyl(oxo)(phenyl)-λ^6-sulfanylidene)amino)methyl)imidazo[4,5-d]pyrrolo[2,3-b]pyridin-1(6H)-yl)cyclohexyl)acetonitrile] |
| 144 nM | 37.3 nM | 17 nM | 1.8 nM | N#CC[C@H]1CC[C@H](n2c(-c3cnn(Cc4cocn4)c3)nc3cnc4[nH]ccc4c32)CC1 [Ex. 166, 2-((1r,4r)-4-(2-(1-(Oxazol-4-ylmethyl)-1H-pyrazol-4-yl)imidazo[4,5-d]pyrrolo[2,3-b]pyridin-1(6H)-yl)cyclohexyl)acetonitrile] |
| 211 nM | 18.8 nM | 33.9 nM | 2 nM | CC(C)NC(=O)NCc1nc2cnc3[nH]ccc3c2n1[C@H]1CC[C@H](CC#N)CC1 [Ex. 171, 1-((1-((1r,4r)-4-(Cyanomethyl)cyclohexyl)-1,6-dihydroimidazo[4,5-d]pyrrolo[2,3-b]pyridin-2-yl)methyl)-3-isopropylurea] |
| 732 nM | 55.9 nM | 28 nM | 1.3 nM | COCCCNC(=O)c1nc2cnc3[nH]ccc3c2n1[C@H]1CC[C@H](CC#N)CC1 [Ex. 173, 1-((1r,4r)-4-(Cyanomethyl)cyclohexyl)-N-(3-methoxypropyl)-1,6-dihydroimidazo[4,5-d]pyrrolo[2,3-b]pyridine-2-carboxamide] |
| 604 nM | 55.2 nM | 57.2 nM | 2.2 nM | N#CC[C@H]1CC[C@H](n2c(C(=O)NCC3CC3)nc3cnc4[nH]ccc4c32)CC1 [Ex. 174, 1-((1r,4r)-4-(cyanomethyl)cyclohexyl)-N-(cyclopropylmethyl)-1,6-dihydroimidazo[4,5-d]pyrrolo[2,3-b]pyridine-2-carboxamide] |
